{
  "source": "ChEMBL document CHEMBL1201862",
  "about": "“PubChem BioAssay data set” (2004)",
  "key": {"[1]": {"target": "T1, Mannose-6-phosphate isomerase (Homo sapiens, UniProt P34949)", "T1 sequence (P34949 whole entry)": "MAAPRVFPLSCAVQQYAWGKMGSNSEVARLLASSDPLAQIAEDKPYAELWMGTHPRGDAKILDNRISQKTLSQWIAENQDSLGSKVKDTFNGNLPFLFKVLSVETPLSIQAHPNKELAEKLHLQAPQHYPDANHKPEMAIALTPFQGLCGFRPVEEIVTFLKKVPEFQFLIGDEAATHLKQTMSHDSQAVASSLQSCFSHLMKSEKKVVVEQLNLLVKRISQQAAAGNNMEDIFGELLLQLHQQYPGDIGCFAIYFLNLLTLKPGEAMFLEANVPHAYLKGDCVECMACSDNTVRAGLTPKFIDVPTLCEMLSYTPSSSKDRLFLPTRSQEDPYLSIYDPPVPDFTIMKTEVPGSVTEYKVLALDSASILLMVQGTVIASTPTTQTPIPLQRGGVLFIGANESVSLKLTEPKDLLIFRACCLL", "assay": "phosphomannose isomerase inhibition – biochemical, fluorescence intensity, confirmation (AID 1535)"}, "[2]": {"target": "Tyrosine-protein phosphatase non-receptor type 7 (Homo sapiens, UniProt P35236)", "sequence (P35236 whole entry)": "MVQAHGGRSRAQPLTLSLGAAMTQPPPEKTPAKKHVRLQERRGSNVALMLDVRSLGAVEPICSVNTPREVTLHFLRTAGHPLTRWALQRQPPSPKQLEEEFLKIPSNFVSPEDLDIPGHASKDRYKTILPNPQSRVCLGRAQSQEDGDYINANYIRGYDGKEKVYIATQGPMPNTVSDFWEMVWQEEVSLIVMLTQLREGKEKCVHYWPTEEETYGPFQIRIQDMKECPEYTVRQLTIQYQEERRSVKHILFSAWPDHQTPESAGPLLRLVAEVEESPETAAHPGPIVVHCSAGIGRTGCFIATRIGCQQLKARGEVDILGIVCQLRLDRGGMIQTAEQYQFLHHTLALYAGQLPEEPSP", "assay": "redox-active compounds inhibiting HePTP phosphatase – biochemical, fluorescence, mechanism study (AID 2068)", "assay_type": "functional"}, "[3]": {"target": "Dual specificity protein phosphatase 6 (Rattus norvegicus, UniProt Q64346)", "assay_type": "functional"}, "[4]": {"target": "SUMO E1/E2 (Homo sapiens, UniProt P63279+Q9UBE0+Q9UBT2)", "assay": "SAR analysis of SUMOylation using HTRF in an in-Vitro dose response assay. [Related pubchem assays (depositor defined):AID2006, AID2011, AID2018, AID2069, AID2658]", "assay_type": "functional"}, "[5]": {"target": "T2, Voltage-gated N-type calcium channel alpha-1B subunit/Amyloid beta A4 precursor protein-binding family A member 1 (Homo sapiens, UniProt Q00975+Q02410)", "T2 sequence (Q00975 whole entry)": "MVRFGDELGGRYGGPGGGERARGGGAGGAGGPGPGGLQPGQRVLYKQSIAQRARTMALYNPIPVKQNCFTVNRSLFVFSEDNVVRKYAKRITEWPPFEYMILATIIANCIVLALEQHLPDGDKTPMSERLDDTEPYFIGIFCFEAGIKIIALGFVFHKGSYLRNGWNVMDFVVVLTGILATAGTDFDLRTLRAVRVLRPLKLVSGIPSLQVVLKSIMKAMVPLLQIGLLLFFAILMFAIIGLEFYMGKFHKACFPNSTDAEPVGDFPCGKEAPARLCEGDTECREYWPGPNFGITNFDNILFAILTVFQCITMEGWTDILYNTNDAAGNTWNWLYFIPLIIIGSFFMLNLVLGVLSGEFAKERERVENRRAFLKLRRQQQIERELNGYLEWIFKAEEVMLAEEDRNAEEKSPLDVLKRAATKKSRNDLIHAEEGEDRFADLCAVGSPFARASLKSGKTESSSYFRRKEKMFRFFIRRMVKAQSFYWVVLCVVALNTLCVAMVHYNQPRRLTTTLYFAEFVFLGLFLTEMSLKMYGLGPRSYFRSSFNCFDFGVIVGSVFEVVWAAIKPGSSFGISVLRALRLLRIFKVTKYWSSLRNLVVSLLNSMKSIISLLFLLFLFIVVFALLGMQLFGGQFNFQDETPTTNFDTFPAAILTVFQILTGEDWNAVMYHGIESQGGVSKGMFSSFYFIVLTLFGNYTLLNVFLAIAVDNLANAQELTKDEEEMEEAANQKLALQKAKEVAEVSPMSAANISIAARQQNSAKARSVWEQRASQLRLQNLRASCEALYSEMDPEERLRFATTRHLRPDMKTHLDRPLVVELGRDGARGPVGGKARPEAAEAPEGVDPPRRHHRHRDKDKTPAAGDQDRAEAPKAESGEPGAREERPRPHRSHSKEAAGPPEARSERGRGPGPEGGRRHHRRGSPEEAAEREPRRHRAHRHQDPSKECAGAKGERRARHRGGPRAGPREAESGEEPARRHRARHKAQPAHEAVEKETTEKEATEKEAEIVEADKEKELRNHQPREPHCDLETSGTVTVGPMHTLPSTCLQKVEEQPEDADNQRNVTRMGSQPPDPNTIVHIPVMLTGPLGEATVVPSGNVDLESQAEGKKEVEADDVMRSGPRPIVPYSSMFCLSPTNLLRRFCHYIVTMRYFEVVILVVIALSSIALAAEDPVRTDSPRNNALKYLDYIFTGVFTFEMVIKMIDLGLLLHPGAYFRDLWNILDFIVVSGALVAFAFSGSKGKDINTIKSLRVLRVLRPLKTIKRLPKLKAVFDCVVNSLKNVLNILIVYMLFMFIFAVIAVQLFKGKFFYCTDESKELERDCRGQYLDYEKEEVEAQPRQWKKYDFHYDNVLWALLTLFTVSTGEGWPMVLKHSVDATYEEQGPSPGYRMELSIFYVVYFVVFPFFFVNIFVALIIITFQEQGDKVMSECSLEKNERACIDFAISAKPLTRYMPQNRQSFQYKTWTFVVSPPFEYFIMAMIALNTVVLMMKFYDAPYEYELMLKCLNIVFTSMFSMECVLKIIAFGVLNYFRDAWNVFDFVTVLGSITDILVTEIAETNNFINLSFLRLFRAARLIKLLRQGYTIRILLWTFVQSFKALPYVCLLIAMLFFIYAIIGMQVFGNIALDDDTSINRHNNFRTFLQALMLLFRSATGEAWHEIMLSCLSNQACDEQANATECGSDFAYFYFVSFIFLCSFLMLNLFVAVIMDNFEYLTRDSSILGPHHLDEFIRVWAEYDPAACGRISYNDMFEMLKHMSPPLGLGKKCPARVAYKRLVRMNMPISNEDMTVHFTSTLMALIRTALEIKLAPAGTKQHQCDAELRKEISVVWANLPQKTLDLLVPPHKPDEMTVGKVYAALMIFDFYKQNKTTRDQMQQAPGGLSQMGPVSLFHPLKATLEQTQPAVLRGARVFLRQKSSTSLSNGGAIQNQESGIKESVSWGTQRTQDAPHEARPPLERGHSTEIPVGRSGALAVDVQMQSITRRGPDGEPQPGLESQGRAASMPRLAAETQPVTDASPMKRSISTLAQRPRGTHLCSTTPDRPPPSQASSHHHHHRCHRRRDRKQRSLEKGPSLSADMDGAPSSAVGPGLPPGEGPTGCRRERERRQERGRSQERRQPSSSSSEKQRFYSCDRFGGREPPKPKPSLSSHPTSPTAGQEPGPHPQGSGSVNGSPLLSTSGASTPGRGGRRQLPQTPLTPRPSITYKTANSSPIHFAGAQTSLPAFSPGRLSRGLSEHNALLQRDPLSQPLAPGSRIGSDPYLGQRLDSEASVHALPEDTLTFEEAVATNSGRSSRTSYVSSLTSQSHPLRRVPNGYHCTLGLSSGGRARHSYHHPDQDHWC", "T2 sequence (Q02410 whole entry)": "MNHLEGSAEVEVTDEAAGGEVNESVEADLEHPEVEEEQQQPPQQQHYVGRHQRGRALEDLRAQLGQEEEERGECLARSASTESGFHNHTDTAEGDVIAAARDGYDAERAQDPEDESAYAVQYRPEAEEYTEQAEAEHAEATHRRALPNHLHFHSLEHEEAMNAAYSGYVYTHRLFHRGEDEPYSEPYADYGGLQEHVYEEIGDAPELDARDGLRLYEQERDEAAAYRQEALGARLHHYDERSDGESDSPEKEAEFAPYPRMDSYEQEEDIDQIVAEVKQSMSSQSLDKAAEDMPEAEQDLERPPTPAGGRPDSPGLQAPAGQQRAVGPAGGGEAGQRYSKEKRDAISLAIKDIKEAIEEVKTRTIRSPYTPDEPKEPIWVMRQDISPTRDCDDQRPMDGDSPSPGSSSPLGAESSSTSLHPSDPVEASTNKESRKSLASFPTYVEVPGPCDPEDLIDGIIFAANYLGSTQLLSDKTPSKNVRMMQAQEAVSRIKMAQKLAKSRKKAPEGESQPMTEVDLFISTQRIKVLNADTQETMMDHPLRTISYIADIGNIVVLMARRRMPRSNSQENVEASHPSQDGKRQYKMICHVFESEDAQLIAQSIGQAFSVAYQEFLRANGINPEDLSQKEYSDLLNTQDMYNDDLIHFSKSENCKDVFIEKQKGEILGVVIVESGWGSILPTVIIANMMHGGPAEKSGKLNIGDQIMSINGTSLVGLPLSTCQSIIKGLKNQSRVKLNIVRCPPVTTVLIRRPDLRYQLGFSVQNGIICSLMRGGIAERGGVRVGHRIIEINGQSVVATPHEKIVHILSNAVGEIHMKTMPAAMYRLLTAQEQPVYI", "assay": "disruptors of Mint-PDZ/N-type channel peptide interaction – biochemical, HTRF, set 2, SAR follow-up (AID 434980)", "assay_type": "functional"}, "[6]": {"target": "T2, Voltage-gated N-type calcium channel alpha-1B subunit/Amyloid beta A4 precursor protein-binding family A member 1", "assay": "disruptors of Mint-PDZ/N-type channel peptide interaction – biochemical, HTRF, SAR follow-up (AID 2489)", "assay_type": "functional"}, "[7]": {"target": "UDP-galactopyranose mutase (Mycobacterium tuberculosis, UniProt P9WIQ1)", "sequence (P9WIQ1 whole entry)": "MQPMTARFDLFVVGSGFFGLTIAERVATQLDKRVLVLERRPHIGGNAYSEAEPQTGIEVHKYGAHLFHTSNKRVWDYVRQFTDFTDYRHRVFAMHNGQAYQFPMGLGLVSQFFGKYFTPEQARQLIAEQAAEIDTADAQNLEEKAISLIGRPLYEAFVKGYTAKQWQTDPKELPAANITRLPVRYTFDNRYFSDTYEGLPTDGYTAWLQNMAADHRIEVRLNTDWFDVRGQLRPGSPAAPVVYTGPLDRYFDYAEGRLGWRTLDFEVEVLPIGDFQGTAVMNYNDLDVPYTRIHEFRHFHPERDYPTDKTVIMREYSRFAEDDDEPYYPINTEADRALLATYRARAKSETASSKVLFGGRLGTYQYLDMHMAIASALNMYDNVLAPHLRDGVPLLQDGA", "assay": "Inhibitors of Mycobacterium tuberculosis UDP-galactopyranose mutase (UGM) enzyme Measured in Biochemical System Using Plate Reader - 2105-02_Inhibitor_Dose_CherryPick_Activity. [Related pubchem assays (depositor defined):AID504439]"}, "[8]": {"assay": "viability of PTEN-deleted HCT116 cells – cell-based, HCT116 PTEN knockout, dose response (AID 1047);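 further: cells exposed to compound for 60 hours before readout; potency for loss of cell viability measured by luminescence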", "assay_type": "functional"}, "[9]": {"test_system": "A-375", "assay": "MITF: Counter assay: A375 proliferation Measured in Cell-Based System Using Plate Reader - 2084-03_Inhibitor_Dose_DryPowder_Activity. [Related pubchem assays (depositor defined):AID488944]", "assay_type": "functional", "details": "Homo sapiens"}, "[10]": {"assay": "viability of HCT116 lacking mutant beta-catenin – cell-based, human colon tumor, dose response (AID 1045);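 further: cells exposed to compound for 60 hours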", "assay_type": "functional"}, "[11]": {"assay": "NIH-3T3 fibroblast cytotoxicity, dose response, cytotoxicity control, cell-based, fluorescence, Alamar Blue, secondary assay (AID 2327);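 further: NIH-3T3 mouse fibroblasts cultured with fluconazole at 8 µg/mL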", "assay_type": "functional"}, "[12]": {"assay": "fluconazole-exposed Candida albicans growth modulators – fluorescence, retest, confirmation (AID 2467)", "assay_type": "functional, cell-based"}, "[13]": {"target": "T3, Corticotropin-releasing factor receptor 2/Corticotropin-releasing factor-binding protein (Homo sapiens, UniProt P24387+Q13324)", "T3 sequence (Q13324 whole entry)": "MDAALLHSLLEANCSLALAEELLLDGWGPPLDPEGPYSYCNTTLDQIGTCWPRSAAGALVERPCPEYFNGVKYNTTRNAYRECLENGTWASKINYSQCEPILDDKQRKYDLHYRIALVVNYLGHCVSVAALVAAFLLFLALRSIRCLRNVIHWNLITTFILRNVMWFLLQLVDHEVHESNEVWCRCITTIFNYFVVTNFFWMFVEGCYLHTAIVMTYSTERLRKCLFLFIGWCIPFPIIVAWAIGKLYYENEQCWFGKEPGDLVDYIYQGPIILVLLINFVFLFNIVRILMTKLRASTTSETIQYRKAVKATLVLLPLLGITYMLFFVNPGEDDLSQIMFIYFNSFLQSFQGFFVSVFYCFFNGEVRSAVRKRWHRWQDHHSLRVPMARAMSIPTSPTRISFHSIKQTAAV", "T3 sequence (P24387 whole entry)": "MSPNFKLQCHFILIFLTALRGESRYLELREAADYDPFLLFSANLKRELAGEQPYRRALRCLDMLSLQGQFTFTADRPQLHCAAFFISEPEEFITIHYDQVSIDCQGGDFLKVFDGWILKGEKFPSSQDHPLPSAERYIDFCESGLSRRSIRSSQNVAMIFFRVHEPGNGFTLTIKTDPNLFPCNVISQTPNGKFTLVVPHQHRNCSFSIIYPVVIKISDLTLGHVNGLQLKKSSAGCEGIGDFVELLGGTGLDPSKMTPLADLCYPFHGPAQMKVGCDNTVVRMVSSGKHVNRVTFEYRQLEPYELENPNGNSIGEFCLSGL", "assay": "Dose Response confirmation of uHTS hits for small molecule antagonists of the CRF-binding protein and CRF-R2 receptor complex.", "assay_type": "functional", "details": "read-out: IC50_Mean"}, "[14]": {"target": "T3, Corticotropin-releasing factor receptor 2/Corticotropin-releasing factor-binding protein", "assay": "activators of CRF receptor 2 with binding protein – uHTS hits, confirmation (AID 602473)", "assay_type": "functional", "details": "read-out: EC50_Mean"}, "[15]": {"target": "Voltage-gated inwardly rectifying potassium channel KCNH2 (Homo sapiens, UniProt Q12809)", "sequence (Q12809 whole entry)": "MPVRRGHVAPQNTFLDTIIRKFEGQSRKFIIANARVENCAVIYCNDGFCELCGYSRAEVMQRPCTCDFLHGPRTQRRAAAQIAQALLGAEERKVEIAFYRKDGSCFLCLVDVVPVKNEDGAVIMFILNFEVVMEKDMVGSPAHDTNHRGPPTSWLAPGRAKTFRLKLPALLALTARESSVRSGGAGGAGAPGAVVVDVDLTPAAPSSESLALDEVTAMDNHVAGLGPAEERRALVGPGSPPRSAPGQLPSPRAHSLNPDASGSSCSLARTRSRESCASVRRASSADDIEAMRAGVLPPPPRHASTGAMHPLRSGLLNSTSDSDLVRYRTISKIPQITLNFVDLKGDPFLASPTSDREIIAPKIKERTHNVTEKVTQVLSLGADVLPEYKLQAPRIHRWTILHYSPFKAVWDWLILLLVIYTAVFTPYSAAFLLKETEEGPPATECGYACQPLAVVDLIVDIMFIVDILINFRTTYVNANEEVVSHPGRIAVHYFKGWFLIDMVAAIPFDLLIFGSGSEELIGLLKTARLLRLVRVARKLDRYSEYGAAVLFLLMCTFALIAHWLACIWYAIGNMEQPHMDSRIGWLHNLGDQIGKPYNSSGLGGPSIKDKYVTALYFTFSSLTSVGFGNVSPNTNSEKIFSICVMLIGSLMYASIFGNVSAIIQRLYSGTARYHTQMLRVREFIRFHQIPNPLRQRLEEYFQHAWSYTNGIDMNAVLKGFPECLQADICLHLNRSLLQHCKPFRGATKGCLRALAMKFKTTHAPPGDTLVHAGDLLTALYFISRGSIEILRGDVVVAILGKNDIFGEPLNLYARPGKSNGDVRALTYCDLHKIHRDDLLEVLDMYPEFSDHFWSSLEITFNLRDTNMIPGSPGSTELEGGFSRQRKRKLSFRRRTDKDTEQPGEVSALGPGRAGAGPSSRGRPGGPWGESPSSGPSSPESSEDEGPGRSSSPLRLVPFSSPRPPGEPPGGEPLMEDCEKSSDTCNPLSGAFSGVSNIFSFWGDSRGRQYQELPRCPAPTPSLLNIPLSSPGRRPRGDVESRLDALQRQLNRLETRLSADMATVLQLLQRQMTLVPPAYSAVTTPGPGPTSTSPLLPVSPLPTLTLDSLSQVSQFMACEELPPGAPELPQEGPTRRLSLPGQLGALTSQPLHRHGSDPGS", "details": "Potency"}},
  "note": "Counter-ions that a name gives are not always drawn. Active and inactive are the calls of the source.",
  "data": [
    {"smiles": "O=c1c2cc(F)ccc2sn1-c1ccccc1F", "values": [
      {"measurement": "IC50", "setting": "[1]", "value": "5.3 µM (active)"}
    ]},
    {"smiles": "CCN(CC)C(=S)c1ccc(O)c(OC)c1", "values": [
      {"measurement": "IC50", "setting": "[2]", "value": "4.42 µM (active)"},
      {"measurement": "IC50", "setting": "[3]", "value": "> 100 µM (inactive)"}
    ]},
    {"smiles": "O=C(COC(=O)c1cc(-c2ccco2)nc2ccccc12)NCc1cccc(Cl)c1", "values": [
      {"measurement": "IC50", "setting": "[4]", "value": "4.63 µM (active)"},
      {"measurement": "IC50", "setting": "[5]", "value": "30.7 µM (active)"},
      {"measurement": "IC50", "setting": "[6]", "value": "23.7 µM (active)"}
    ]},
    {"smiles": "O=C(NCC1CCCO1)c1cccc2c1C(=O)c1ccc(N3CCC(Cc4ccccc4)CC3)cc1S2(=O)=O", "note": "(stereo not given)", "values": [
      {"measurement": "AC50", "setting": "[7]", "value": "52.6 µM (active)"}
    ]},
    {"smiles": "CCOc1cc(/C=N/N=C(N)N)ccc1OCc1ccc(Cl)cc1", "values": [
      {"measurement": "EC50", "setting": "[8]", "value": "3.92 µM (active)"},
      {"measurement": "AC50", "setting": "[9]", "value": "18 µM (active)"},
      {"measurement": "EC50", "setting": "[10]", "value": "3.01 µM (active)"},
      {"measurement": "EC50", "setting": "[11]", "value": "81.2 µM (active)"},
      {"measurement": "EC50", "setting": "[12]", "value": "> 38 µM (not active)"}
    ]},
    {"smiles": "c1ccc(C2CN3CCSC3=N2)cc1", "note": "(stereo not given) [TETRAMISOLE HYDROCHLORIDE]", "values": [
      {"measurement": "IC50", "setting": "[13]", "value": "> 47.1 µM (inactive)"},
      {"measurement": "EC50", "setting": "[14]", "value": "> 53 µM (inactive)"},
      {"measurement": "AC50", "setting": "[15]", "value": "35.5 µM (inconclusive)"}
    ]}
  ]
}
